Results as given in patent US10442793B2, “Oxa spiro derivative, preparation method therefor, and applications thereof in medicines” (Jiangsu Hengrui Medicine Co., Ltd., priority 2015, dated 2019).
Like-named read-outs stand apart in the source and are kept apart here.

Key:
Type in all cases: cell-based
[1] = target: T1, μ-opioid receptors (MOR) (Homo sapiens, UniProt P35372); assay: MOR activity test: HEK293/MOR/CRE luciferase reporter, agonizing MOR and affecting downstream cAMP levels; details: for Emax: HEK293, maximum effect of TRV-130 is 100%, read-out: Emax on agonizing MOR receptor and affecting cAMP levels
T1 construct: host or cells: HEK293
T1 sequence (P35372 whole entry): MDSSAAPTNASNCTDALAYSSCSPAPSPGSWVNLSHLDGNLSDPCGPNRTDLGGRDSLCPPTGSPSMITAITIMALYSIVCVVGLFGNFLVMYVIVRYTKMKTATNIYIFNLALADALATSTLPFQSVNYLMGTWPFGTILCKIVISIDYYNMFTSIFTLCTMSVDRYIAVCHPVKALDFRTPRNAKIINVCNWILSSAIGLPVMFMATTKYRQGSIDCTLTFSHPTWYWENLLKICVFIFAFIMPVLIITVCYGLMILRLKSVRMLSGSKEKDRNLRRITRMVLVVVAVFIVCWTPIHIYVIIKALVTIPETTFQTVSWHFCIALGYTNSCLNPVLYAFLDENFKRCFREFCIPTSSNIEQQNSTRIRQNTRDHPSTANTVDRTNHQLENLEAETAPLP
Description: The compounds of the present invention can activate μ-opioid receptors (MOR). Activated MOR can regulate intracellular cAMP levels, and cAMP enters the nucleus and binds to the CRE region of the reporter gene luciferase, thereby initiating the expression of the reporter gene. Luciferase can react with its substrate to emit fluorescence, and the measured fluorescence signals reflect the agonistic activity of the compounds.
The activity of the test example compounds on agonizing MOR and affecting downstream cAMP levels was tested by the following method.
MOR/pcDNA3.1 (+) and CRE/pGL4.29 were transferred into HEK293 cells. G418 and hygromycin were added into the culture medium, and HEK293/MOR/CRE monoclonal cell lines were screened in a 96-well cell culture plate.
HEK293/MOR/CRE monoclonal cells were cultured in a DMEM/high glucose medium (10% FBS, 1 mg/ml G418, 200 μg/ml hygromycin, mixed uniformly), and passaged every 3 days. On the day of the experiment, a cell suspension was prepared with a fresh cell medium, added to a 96 well plate (BD, #356692) with 20,000 cells/well, and incubated in 5% CO2 at 37° C. On the second day, the compound was dissolved in pure DMSO at a concentration of 20 mM, then formulated with DMSO to a first concentration of 4 mM and diluted in 10 fold concentration gradient to 6 concentrations. Then, 90 μl of DMSO was added to blank and control wells. Then, formulated compound was prepared by adding 2.5 μl of the compound solutions formulated in DMSO at a gradient concentration to 97.5 μl of a fresh cell culture medium containing 5 μM foscolin. Then, 10 μl of the formulated compound was added to the cell culture plate to make the final concentration of the compound 10000, 1000, 100, 10, 1, 0.1, or 0.01 nM, and the plate was incubated at 37° C., in 5% CO2 for 5 hours. In a 96-well cell culture plate, 100 μl of luciferase assay solution (Promega, # E6110) was added to each well. The plate was placed in the dark at room temperature for 10-15 minutes, blowed and aspirated 10 times, and 100 μl were pipetted to a 96 well white plate. The chemiluminescence signal values were read in a microplate reader (PE, Victor3), and the read data was processed using software.
The activity of the compounds of the present invention on agonizing MOR and affecting downstream cAMP levels was determined by the above test, and the EC50 values are shown in Table 1.1.

[2] = target: T2, KOR receptor (Homo sapiens, UniProt P41145); assay: KOR activity test: HEK293/KOR/CRE luciferase reporter, cAMP levels; details: for Emax: HEK293, maximum effect of morphine is 100%
T2 construct: expressed in transfected cells; host or cells: HEK293
T2 sequence (P41145 whole entry): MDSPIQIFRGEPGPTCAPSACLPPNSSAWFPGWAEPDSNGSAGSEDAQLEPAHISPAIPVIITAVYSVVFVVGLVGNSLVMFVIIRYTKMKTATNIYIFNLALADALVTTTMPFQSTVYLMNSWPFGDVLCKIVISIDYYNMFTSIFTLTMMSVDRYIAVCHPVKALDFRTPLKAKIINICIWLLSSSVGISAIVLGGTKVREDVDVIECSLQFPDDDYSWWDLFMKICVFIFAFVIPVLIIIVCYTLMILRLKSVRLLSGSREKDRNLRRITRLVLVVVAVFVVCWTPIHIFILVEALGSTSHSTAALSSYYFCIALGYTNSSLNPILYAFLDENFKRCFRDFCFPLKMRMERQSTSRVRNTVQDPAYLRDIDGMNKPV
Description: (§1) The experiment objective is to determine the activity of the compounds of the present invention on agonizing KOR receptor and DOR receptor, and affecting downstream cAMP levels.
(§2) 90 μl of HEK293/KOR/CRE or HEK293/DOR/CRE (CRE cDNA purchased from Promega, product number E8471, KOR cDNA and DOR cDNA were constructed by our company) cells were inoculated in a 96-well plate with a density of 1×10^4 cells/well. Then, the cells were incubated overnight at 37° C., in 5% CO2. The drug was prepared as a 20 mM stock solution that was later diluted with 100% DMSO to a 200×concentration gradient, and then diluted with a 20-fold DMEM/high glucose (SH30243.01B, Hyclone) medium. The cell culture plate inoculated on the first day was taken out, and […] of the diluted drug or control (0.5% DMSO) was added to each well. The plate was gently shaken and placed in a incubator at 37° C., 5% CO2 for 4 hours. Finally, 100 μl of a detection reagent ONE-Glo (E6120, Promega) was added to each well, and the plate was placed at room temperature for 5 minutes. The absorbance value was measured by the cold light model of a microplate reader (PE, Victor3). The EC50 value of the compound was calculated by Graphpad Prism software according to each concentration of the compound and the corresponding signal value. Emax is the maximum effect of the compound on cAMP level changes.
(§3) The activity of the compounds of the present invention on agonizing KOR receptor or DOR receptor and affecting downstream cAMP levels was determined by the above test, and the EC50 values are shown in Table 1.2.

[3] = target: T3, DOR receptor (Homo sapiens, UniProt P41143); assay: DOR activity test: HEK293/DOR/CRE luciferase reporter, cAMP levels; details: for Emax: HEK293, maximum effect of morphine is 100%
T3 construct: expressed in transfected cells; host or cells: HEK293
T3 sequence (P41143 whole entry): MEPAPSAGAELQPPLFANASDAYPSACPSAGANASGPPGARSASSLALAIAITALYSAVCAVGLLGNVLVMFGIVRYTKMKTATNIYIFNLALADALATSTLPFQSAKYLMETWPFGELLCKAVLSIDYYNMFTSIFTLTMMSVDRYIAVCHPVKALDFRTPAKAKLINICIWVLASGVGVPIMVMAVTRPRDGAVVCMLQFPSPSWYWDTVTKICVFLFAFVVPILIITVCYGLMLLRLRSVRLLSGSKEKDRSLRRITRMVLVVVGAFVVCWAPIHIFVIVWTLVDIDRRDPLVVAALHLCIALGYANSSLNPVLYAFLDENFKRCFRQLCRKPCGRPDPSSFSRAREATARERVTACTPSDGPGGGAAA
Description: as §1, §2, §3

[4] = target: T4, MOR receptor (Homo sapiens, UniProt P35372); assay: Activation of the β-arrestin signaling pathway of MOR receptor (CHO-K1 OPRM1 β-Arrestin cells, DiscoveRX); details: for Emax: maximum effect of morphine is 100%
T4 construct: host or cells: CHO-K1
T4 sequence (P35372 whole entry): as the sequence (P35372 whole entry) above
Description: The experiment objective is to determine the activity of the compounds of the present invention on activating the β-arrestin signaling pathway of MOR receptor.
The drug was prepared as a 20 mM stock solution that was later diluted with 100% DMSO to a 200×concentration gradient, and then diluted with a 20-fold AssayComplete™ Cell Plating 2 Reagent (93-0563R2B, DiscoveRX) medium. The cell culture plate inoculated on the first day was taken out, and 10 μl of the diluted drug or control (0.5% DMSO) was added to each well. The plate was gently shaken and placed in an incubator at 37° C., 5% CO2 for 90 minutes. Finally, 50 μL of a detection reagent (93-0001, DiscoveRX) were added to each well, and the plate was placed at room temperature for 60 minutes. The absorbance values were measured by the cold light model of a microplate reader (PE, Victor3). The EC50 values of the compounds were calculated by Graphpad Prism software according to each concentration of the compound and the corresponding signal value.

[5] = target: T5, hERG potassium channel (Homo sapiens, UniProt Q12809); assay: Blocking of hERG potassium current, automatic patch clamp on HEK293-hERG cells
T5 construct: expressed in transfected cells; host or cells: HEK293
T5 sequence (Q12809 whole entry): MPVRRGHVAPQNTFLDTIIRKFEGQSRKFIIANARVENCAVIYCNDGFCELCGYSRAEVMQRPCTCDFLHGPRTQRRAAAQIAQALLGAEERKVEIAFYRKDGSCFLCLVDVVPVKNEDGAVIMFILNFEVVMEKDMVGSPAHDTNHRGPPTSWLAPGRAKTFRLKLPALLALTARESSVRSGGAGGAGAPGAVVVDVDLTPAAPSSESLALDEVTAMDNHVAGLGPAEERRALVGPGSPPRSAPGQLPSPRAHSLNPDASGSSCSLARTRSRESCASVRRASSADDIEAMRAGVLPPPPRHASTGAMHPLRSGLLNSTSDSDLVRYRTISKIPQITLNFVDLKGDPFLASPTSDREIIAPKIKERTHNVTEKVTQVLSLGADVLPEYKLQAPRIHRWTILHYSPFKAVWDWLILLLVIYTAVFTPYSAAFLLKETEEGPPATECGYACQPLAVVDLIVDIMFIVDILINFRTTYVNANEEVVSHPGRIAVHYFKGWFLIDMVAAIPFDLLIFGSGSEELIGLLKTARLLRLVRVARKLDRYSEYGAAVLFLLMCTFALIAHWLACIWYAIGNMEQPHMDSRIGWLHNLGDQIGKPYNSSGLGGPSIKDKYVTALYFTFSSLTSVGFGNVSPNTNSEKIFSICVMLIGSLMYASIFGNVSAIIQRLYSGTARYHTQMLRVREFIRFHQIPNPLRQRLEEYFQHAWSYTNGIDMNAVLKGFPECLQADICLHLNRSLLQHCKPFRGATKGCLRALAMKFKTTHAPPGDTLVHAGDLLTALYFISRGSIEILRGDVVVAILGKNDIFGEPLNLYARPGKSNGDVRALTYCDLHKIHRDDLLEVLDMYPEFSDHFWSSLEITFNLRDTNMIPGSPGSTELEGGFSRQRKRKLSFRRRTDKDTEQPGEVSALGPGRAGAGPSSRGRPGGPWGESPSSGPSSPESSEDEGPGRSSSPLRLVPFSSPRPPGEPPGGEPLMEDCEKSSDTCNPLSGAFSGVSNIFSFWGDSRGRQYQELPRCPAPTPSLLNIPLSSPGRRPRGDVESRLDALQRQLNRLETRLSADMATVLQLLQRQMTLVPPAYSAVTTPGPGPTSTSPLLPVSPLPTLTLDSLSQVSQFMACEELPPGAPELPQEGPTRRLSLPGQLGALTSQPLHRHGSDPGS
Description: The blocking effect of the compounds of the present invention and the positive compound TRV-130 (Journal of Pharmacology and Experimental Therapeutics, Volume 344, Issue 3, Pages 708-717, 2013) on hERG potassium current was tested on a stable cell line transfected with hERG potassium channel using an automatic patch clamp.
HEK293-hERG stabilized cells were subcultured at a density of 1:4 in a MEM/EBSS medium (10% FBS, 400 μg/ml G418, 1% MEM nonessential amino acid solution (100×), 1% sodium pyruvate solution) for 48-72 hours, then the automatic patch clamp experiment was performed. The cells were digested with 0.25% trypsin on the day of the experiment, then the cells were collected by centrifugation and resuspended with extracellular fluid (140 mM NaCl, 4 mM KCl, 1 mM MgCl2, 2 mM CaCl2, 5 mM D-glucose monohydrate, 10 mM Hepes, pH 7.4, 298 mOsmol) into a cell suspension. The cell suspension was placed on the cell bank of the Patchliner instrument, and the cells were added to the chip (NPC-16) by the negative pressure controller of the Patchliner instrument, with negative pressure attracting individual cells to the small hole of the chip. After the whole cell model was formed, the instrument generated the hERG current according to the preset hERG current and voltage program, and then the instrument perfused the compound from low concentration to high concentration automatically. HEAK Patchmaster, HEAK EPC10 patch clamp amplifier (Nanion), Pathliner software, and a data analysis software provided by Pathcontrol HTsoftware were used to analyze the current of the compounds at different concentrations and the current of the blank control.
The blocking effect of the compounds of the present invention on hERG potassium current was determined by the above test, and the IC50 values are shown in Table 3.

[6] = HEK293/KOR/CRE cells, 4 h incubation, read-out: KOR EC50
[7] = HEK293/DOR/CRE cells, 4 h incubation, read-out: DOR EC50

SMILES	EC50 [1] [nM]	Emax [1] [%]	EC50 [2] [nM]	Emax [2] [%]	EC50 [3] [nM]	Emax [3] [%]	EC50 [4] [nM]	Emax [4] [%]	IC50 [5] [nM]	EC50 [2, 6] [nM]	EC50 [3, 7] [nM]	EC50 ([4]; CHO-K1 OPRM1 β-Arrestin cells, 90 minutes, read-out: EC50 on the β-arrestin signaling pathway) [nM]	EC50 ([1]; HEK293/MOR/CRE cells, 5 h incubation, forskolin, read-out: EC50 on agonizing MOR receptor and affecting cAMP levels) [nM]	IC50 ([5]; HEK293-hERG cells, automatic patch clamp, read-out: IC50 on blocking hERG potassium current) [nM]
O=C1CC[C@H](NCC[C@@]2(c3ccccn3)CCOC3(CCCC3)C2)c2ccccc21 [Example 11, (S)-4-((2-((R)-9-(pyridin-2-yl)-6-oxaspiro[4.5]decan-9-yl)ethyl)amino)-3,4-dihydronaphthalen-1(2H)-one]	17	112	277	98	1920	80	305	37	4100					
CO[C@H]1CC[C@H](NCC[C@@]2(c3ccccn3)CCOC3(CCCC3)C2)c2ccccc21 [Example 14, (1S,4S)-4-methoxy-N-(2-((R)-9-(pyridin-2-yl)-6-oxaspiro[4.5]decan-9-yl)ethyl)-1,2,3,4-tetrahydronaphthalen-1-amine]	3	109	1470	74	1510	91	26	24	8600					
CCO[C@H]1CC[C@H](NCC[C@@]2(c3ccccn3)CCOC3(CCCC3)C2)c2ccccc21 [Example 19, (1S,4S)-4-ethoxy-N-(2-((R)-9-(pyridin-2-yl)-6-oxaspiro[4.5]decan-9-yl)ethyl)-1,2,3,4-tetrahydronaphthalen-1-amine]	2	98	862	96	552	108	24	13	5900					
c1ccc([C@]2(CCN[C@H]3CC[C@H](OCC4CC4)c4ccccc43)CCOC3(CCCC3)C2)nc1 [Example 20, (1S,4S)-4-(cyclopropylmethoxy)-N-(2-((R)-9-(pyridin-2-yl)-6-oxaspiro[4.5]decan-9-yl)ethyl)-1,2,3,4-tetrahydronaphthalen-1-amine]				103		118		9		710	1520	4		
FCCO[C@H]1CC[C@H](NCC[C@@]2(c3ccccn3)CCOC3(CCCC3)C2)c2ccccc21 [Example 21, (1S,4S)-4-(2-fluoroethoxy)-N-(2-((R)-9-(pyridin-2-yl)-6-oxaspiro[4.5]decan-9-yl)ethyl)-1,2,3,4-tetrahydronaphthalen-1-amine]		110		100		107				1180	1490		5	4200
COC[C@H]1CC[C@H](NCC[C@@]2(c3ccccn3)CCOC3(CCCC3)C2)c2ccccc21 [Example 22, (1S,4S)-4-(methoxymethyl)-N-(2-((R)-9-(pyridin-2-yl)-6-oxaspiro[4.5]decan-9-yl)ethyl)-1,2,3,4-tetrahydronaphthalen-1-amine]	4	103	3090	97	2400	102	41	18	3800					
